Data: patent US9738690B2, “Polyoma virus JC peptides and proteins in vaccination and diagnostic applications” (UNIVERSITAET ZUERICH, priority 2011, dated 2017)
“Also recorded” adds a separate entry of the source. Where two headings read alike, the source gives them in different places.

Experiments:
unmanipulated PBMC = type: cell-based, human
[1] = system: peripheral blood-derived PHA-expanded cells; type: cell-based, human
[2] = system: brain-derived PHA-expanded cells; type: cell-based, human
[3] = system: CSF-derived PHA-expanded cells; type: cell-based, human
[4] = system: brain-derived VP1/VLP-specific T cell clones; experiment: Fine specificity of brain-derived VP1/VLP-specific T cell clones (TCC); type: cell-based, human; details: for recognition by brain-derived VP1-specific TCC: each TCC tested against 64 15-mer peptides spanning VP1
Protocol: 2.5×10^4 brain-derived PHA-expanded cells were seeded in 96-well U-botton microtiter plates with 1×10^5 autologous irradiated PBMC with or without VP1/VLP protein. After 48 hours of culture, plates were split into mother and daughter plates. Proliferation was measured in daughter plates by methyl-^3H-thymidine incorporation. VP1/VLP-responsive cultures were identified in mother plates, and IL-2 was added every 3-4 days until day 12. T cell clones (TCC) were established from positive cultures by seeding cells from VP1/VLP-responsive wells under limiting dilution conditions at 0.3 and 1 cell/well in 96-well U-botton microtiter plates, and addition of 2×10^5 allogeneic, irradiated PBMC and 1 μg/ml of PHA-L in complete RPMI. After 24 h, 20 U/ml of human recombinant IL-2 were added. VP1/VLP specificity was then confirmed seeding 2.5×10^4 cells from growing colonies with autologous irradiated PBMC with or without VP1/VLP protein for 72 h. Specific cultures were restimulated every two weeks with 1 μg/ml PHA-L, 20 U/ml hrIL-2 and allogeneic irradiated PBMC, and hrIL2 was added every 3-4 days.
Prior data had shown that CD4+ differentiate into certain T helper phenotypes such as Th1 cells (IFN-gamma producers), Th17 cells secreting IL-17, Th2 cells expressing the signature cytokine IL-4, or T regulatory cells based on the expression of certain transcription factors (Zhu et al., 2010). The differentiation into Th1 or Th2 cells is considered mutually exclusive and controlled by the transcription factors T-bet (Th1) and Gata-3 (Th2) (Zhu et al., 2010). […] VP1/VLP-specific TCC were generated as described in material and methods. Initially 21 VP1/VLP-specific single cell-derived cultures were generated by limiting dilution and characterized for TCRV beta expression, functional phenotype and fine specificity (Table 2). This characterization allowed the identification of 11 presumed different TCC. The number of single cell growing cultures corresponding to each TCC gives an idea about the frequency of each TCC in the brain infiltrate (FIG. 3a). TCC-4 was most abundant and represented by 5 colonies emerging from single growing wells, followed by TCC-2 with 3 single cell growing cultures, TCC-1, -8, -9 and -10 with 2 single cell growing cultures and finally TCC-3, -5, -6, -7 and -11 with only 1 single cell growing culture. […] Taking into account both the number of different TCC recognizing a specific peptide and the frequency of each TCC in the brain infiltrate the immunodominant peptides recognized by VP1 specific brain infiltrating TCC were VP134, VP174, VP1319 and VP1335 confirming the fine specificity obtained using the brain-derived bulk cell population (FIG. 3c). […] For three of the immunodominant peptides (VP134, VP1319 and VP1335) we found TCC with both phenotypes. The T helper phenotype of Th1-2 and Th1 TCC was confirmed my measuring IL-4 and IFN-gamma protein secretion by ELISA and by determining the expression of mRNAs of the transcription factors Gata3 and T-bet. Th1-2 TCC (n=5) secreted IL-4 in addition to IFN-gamma, while IL-4 secretion was barely detectable in Th1 TCC (n=6) (FIG. 6c). Cytokine secretion profiles were not due to stimulation with PHA, since the same stable patterns were observed after specific stimulation with VP1/VLP protein by intracellular cytokine staining or ELISA measurements from culture supernatants. Transcription factor expression confirmed the phenotype of the TCC. […]

[5] = system: brain-derived PHA-expanded cells; experiment: Determination of precursor frequency by limiting dilution; type: cell-based, human; details: fraction of T cells responding
Protocol: Frequencies of VP1/VLP-specific cells were determined by limiting dilution. 20, 200, 2.000 or 20.000 brain-derived PHA-expanded cells were seeded in quadruplicates in 96-well U-botton microtiter plates with 1×10^5 autologous irradiated PBMC with or without VP1/VLP protein. After 72 hours, proliferation was measured by methyl-^3H-thymidine incorporation. Frequencies were calculated as previously described (Taswell, 1981). Observed data were: r, the number of negatively responding cultures or wells of each dose i; n, the total number of wells per dose i, and X, the number of cells in the dose i. Calculated data was: pi=ri/ni, the fraction of negatively responding cultures of each dose i. The frequency was calculated using the following formula: f=−(ln pi)/λi.

JCV [6] = details: cited from earlier work
[7] = system: peripheral blood mononuclear cells (PBMC); experiment: 3H-thymidine incorporation assay of patient PBMC with VP1; type: cell-based, human
VP1-specific T-cells = experiment: Flow cytometry characterization of VP1-specific T cells of the vaccinated patient; type: cell-based, human
JCV [8] = experiment: Individual healing attempt: therapeutic vaccination of PML patients with VP1, imiquimod and IL-7; type: in vivo, human; details: patient with idiopathic CD4+ lymphopenia and PML, s.c. VP1 + dermal imiquimod + IL-7
Protocol: An individual healing attempt was performed in a patient with idiopathic CD4+ lymphopenia, a rare constitutive immunodeficiency, who developed PML (referred to as “patient Hamburg” in FIG. 11). The patient had been healthy, i.e. not experienced unusual or frequent infections, throughout their life, and in February 2010 was hospitalized with signs of an encephalitis of unknown origin. They were thoroughly worked up, and a diagnosis of suspected EBV-related encephalitis was made. Following transient improvement during antiviral therapy, they deteriorated further albeit slowly. […] In parallel, the inventors found a low CD4+ T cell count (around 300/microliter) as well as a CD4+/CD8+ ratio of 0.5 or less, which are both consistent with the diagnosis of idiopathic CD4+ lymphopenia. In addition, in vitro experiments in the laboratory documented an absent T cell response to JCV virus VP1 in peripheral blood mononuclear cells and an almost complete absence of naïve CD4+ T cells. Following these observations, the inventors reasoned that the patient probably had developed PML based on a pre-existing and probably genetically determined low CD4+ number, which became further accentuated by entirely physiological immune involution, which sets in and increases above 50 years of age.
The vaccination approach in the above patient included the following steps (for timing of vaccinations and tests see scheme below): Subcutaneous injection with the entire recombinant major capsid protein VP1 (provided by the Life Science Inkubator, Bonn) in combination with a dermally applied TLR7 agonist (imiqimod, Aldara; commercially available) and i.v. recombinant IL-7 (Cytheris). The VP1 protein was administered in the form of virus-like particles (VLP), as the recombinantly expressed VP1 protein associated to such particles under the conditions used herein.
Another individual healing attempt was performed in a patient with breast cancer who received chemotherapy and developed acute myeloid leukaemia (AML) as a side effect of the chemotherapy. The patient then received an autologous and allogeneic hematopoietic stem cell transplant as treatment of the AML and subsequently developed acute graft-versus-host disease (grade IV). […] This case is referred to as “patient Zurich” in FIG. 11. Both patients were treated by recombinant IL-7 (s.c.). 2 days later, the first dose of VP1 (s.c. 1 mg, imiquimod cream on the skin) was administered. 2 days after the first dose of VP1, the second dose of rIL-7 was given.
On day 12 after the first IL-7 dose, the patients received a second vaccination with VP1 s.c. plus imiquimod, and in this case simultaneously rIL-7. At week 6, a third dose of VP1/imiquimod and a fourth dose of rIL-7 were administered. […] A stimulation index of >2 is considered a positive response.

[9] = recombinant IL-7 together with antiviral drugs, case of CD4+ lymphopenia; cited from earlier work

In the case of “Tetanus toxoid [TTx, reference compound]”, the proliferative response (unmanipulated PBMC) is reported as “significantly stronger response”, the “stimulation index (SI)” value [1] is reported as 6.5 and the “stimulation index (SI)” value [2] is reported as “no response”. For the same molecule, the “stimulation index (SI)” value [3] was 14.

With “VP1143: 15-mer VP1 peptide starting at amino acid 143; likely peptide 43, SEQ ID NO 23 (HFFSVGGEALELQGV; JC virus)” the “recognition by brain-derived VP1-specific TCC” value (“recognition” for short) [4] was “recognized by TCC-6”.

For “4: 15-mer JCV Agno peptide starting at amino acid 25; likely SEQ ID NO 1 (image row of Table 1) (AQRILIFLLEFLLDF; JC virus) [Peptide 4]”, the “precursor frequency of peptide-specific T cells” value [5] was 1/14492.

In the case of “23: 15-mer VP1 peptide starting at amino acid 54; likely SEQ ID NO 3 (image row of Table 1) [Peptide 23]”, the “recognition” value [4] is reported as “recognized by TCC-3”.

In the case of “VP1/VLP: recombinant JCV major capsid protein VP1 forming virus-like particles; VP1 and VLP used interchangeably”, the “immune response after vaccination with Freund's Complete Adjuvant (FCA)” value (JCV [6]; with FCA) is listed as “induces an immune response”, the “immune response after vaccination without adjuvant” value (JCV [6]; without adjuvant) is listed as “not immunogenic” and the “stimulation index (SI)” value ([1]; PHA-expanded PBMC, VP1/VLP 2 μg/ml, TTx 5 μg/ml, 72 hours) is listed as “negative”. For the same molecule, the “immune response against JCV after vaccination (stimulation index, >2 positive)” value ([7]; patient Hamburg and patient Zurich, PBMC 1×10e5 cells/well with VP1/VLP, 7 days, VP1 s.c. 1 mg + imiquimod + rIL-7) was “positive immune response against JCV”, the “T cell response to JCV VP1 in PBMC before vaccination” value ([7]; patient with idiopathic CD4+ lymphopenia and PML, before vaccination) was “absent” and the “in vitro proliferative response against JCV VP1 after vaccination” value ([7]; patient with idiopathic CD4+ lymphopenia and PML, s.c. VP1 + dermal imiquimod + IL-7) was “in vitro proliferative response against JCV VP1 after only two vaccinations”. For the same molecule, the “cell type proliferating after VP1 stimulus” value (VP1-specific T-cells; 6 weeks after immunization) was “Only CD4+ cells proliferate”, the “cytokine expression of CD4+ T cells after VP1 stimulation” value (VP1-specific T-cells; antigen day 0, restimulated day 6, intracellular cytokine staining, FACS) was “produce IFN-gamma after VP1 stimulation” and the “stimulation index (SI)” value ([2]; brain-derived PHA-expanded T cells, VP1/VLP 2 μg/ml, TTx 5 μg/ml, 72 hours) was greater than 600. For the same molecule, the “CSF cell counts after vaccination” value (JCV [8]) was “slightly elevated CSF cell counts”, the “JCV viral load after vaccination” value (JCV [8]) was 0 and the “brain MRI imaging after vaccination” value (JCV [8]; listed as VP1) was “slight contrast enhancement around the PML lesions”. For the same molecule, the “clinical course after vaccination” value (JCV [8]; listed as VP1) was “clinical improvement with slight delay; also recorded: clinically improving” and the “stimulation index (SI)” value ([3]; CSF-derived PHA-expanded cells, VP1/VLP 2 μg/ml, TTx 5 μg/ml, 72 hours) was 7.

For “20: 15-mer VP1 peptide starting at amino acid 34; likely SEQ ID NO 2 (image row of Table 1) (VDSITEVECFLTPEM; JC virus) [Peptide 20]”, the “stimulation index (SI), individual JCV peptides” value ([2]; brain-derived PHA-expanded cells, individual peptides at 10 μM, 72 hours, listed as VP134) was “strongest response”, the “immunodominance among VP1 specific brain infiltrating TCC” value ([4]; by number of TCC recognizing the peptide and frequency of each TCC) was “immunodominant” and the “recognition” value [4] was “recognized by TCC-1 and -2”.

With “VP191: 15-mer VP1 peptide starting at amino acid 91; likely peptide 31, SEQ ID NO 11 (LNEDLTCGNILMWEA; JC virus)” the “recognition” value [4] was “recognized by TCC-5”.

B1: recombinant IL-7: recombinant IL-7 (Cytheris) (protein, UniProt P13232 26-177, looked up)
Interleukin-7: DCDIEGKDGKQYESVLMVSIDQLLDSMKEIGSNCLNNEFNFFKRHICDANKEGMFLFRAARKLRQFLKMNSTGDFDLHLLKVSEGTTILLNCTGQVKGRKPAALGEAQPTKSLEENKSLKEQKKLNDLCFLKRLLQEIKTCWNKILMGTKEH
For B1, the clinical outcome [9] is given as “substantial improvement”.
